Reference: patent US4459227A, “Para-hydroxyphenylhydrazines as in situ precursors of iminoquinones and quinones” (Duke University, priority 1981, dated 1984)
“Also recorded” adds a separate entry of the source. Where two headings read alike, the source gives them in different places.

What was measured:
[1] = tested on: Female DBA/2J mice; experiment: In vivo toxicity (LD50, survival, histology); design: key to Histologic Findings: Acute Renal Tubular Necrosis / Histologic Findings: Pulmonary Congestion and Edema: 0: absent; +: mild; ++: moderate; +++: severe; details: for pulmonary congestion and edema (in words): Phe-CHP 600, Leu-CHP 1000, CHP-OEt 550 mg/kg
Description: (§1) Female DBA/2J mice, 8 weeks old, were injected intraperitoneally with test compound solutions (X, XI, XII, XIII, […]) to give a final concentration of 30 mg/ml.
(§2) In those groups receiving both test compound and cysteine, cysteine (1000 mg/kg) was given i.p. both 1 hour prior to and 2 or 3 hours after i.p. injection of the test compound. In Table 3 are the results of these experiments.

[2] = In vivo toxicity (LD50, survival, histology); design: species or system mice; key to Histologic Findings: Acute Renal Tubular Necrosis / Histologic Findings: Pulmonary Congestion and Edema: 0: absent; +: mild; ++: moderate; +++: severe; details: mouse, in vivo, ip, mice; for NOAEL: read-out: non-toxic up to (dose)
Description: as §1, §2

[3] = molecular target: T1, Leucine Aminopeptidase (LAP), type III-CP (Sus scrofa, UniProt P28839); experiment: Leucine aminopeptidase in vitro hydrolysis (TLC); format: biochemical; details: 1 mg/ml AA-CHP, pH 9.0, up to 12 hours
T1 sequence (P28839 33-519): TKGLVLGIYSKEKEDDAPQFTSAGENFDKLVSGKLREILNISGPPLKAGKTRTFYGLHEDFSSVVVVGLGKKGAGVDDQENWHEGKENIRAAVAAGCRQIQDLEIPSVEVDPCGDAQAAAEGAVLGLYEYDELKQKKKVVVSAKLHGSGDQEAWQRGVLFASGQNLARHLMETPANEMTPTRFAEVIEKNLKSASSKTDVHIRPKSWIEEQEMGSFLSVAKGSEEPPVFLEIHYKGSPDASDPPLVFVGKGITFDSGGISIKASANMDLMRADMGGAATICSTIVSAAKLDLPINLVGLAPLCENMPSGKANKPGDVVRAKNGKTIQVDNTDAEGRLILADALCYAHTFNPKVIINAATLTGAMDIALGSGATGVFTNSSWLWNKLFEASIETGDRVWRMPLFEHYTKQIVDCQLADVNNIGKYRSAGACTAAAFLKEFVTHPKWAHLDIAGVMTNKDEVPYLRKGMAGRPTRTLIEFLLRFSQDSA
Description: Leucine Aminopeptidase (LAP), type III-CP (Sigma) was stored at 0°-4° C. in 0.75M saturated […], 0.1M Tris and 0.005M MgCl2 (pH 8) and contained 210 U/ml. Prior to the hydrolysis experiment, LAP (50λ) was activated by incubating it in 0.025M MnCl2 (0.2 ml), 0.5M Tris.HCl buffer (pH 9.0, 0.2 ml) and demineralized and ultra-filtered H2 O (0.6 ml) for at least 2 hours at 37° C. To each sample test tube was added AA-CHP (1.5 mg) in 0.02M Tris HCl buffer (pH 9.0, 0.5 ml) so that the final concentration was 1 mg/ml AA-CHP. […] They were dried and sprayed with 0.2% Ninhydrin in EtOH and the color was developed at 85° C. for 5 minutes. The in vitro hydrolysis of Leu-CHP by LAP was also concomitantly studied by scanning spectrophotometry at different times after the start of incubation with the enzyme. A blank reference cell containing only enzyme and buffer was used.

[4] = Spectral study of rearrangement/reactions with nucleophiles, reducing and oxidizing agents; format: physicochemical
Description: In order to characterize the products of hydrolysis of AA-CHP's, the hydrolysis of Leu-CHP by LAP was studied by absorption spectrophotometry. […] This was also true for the new maximum at 350 nm and for a second new "maximum" which appeared as a low, broad "peak" merging with 350 peak and centered at about 400 nm. However, by 22 minutes (not shown) the absorbance at 300 and 400 nm had diminished in intensity while the 350 maximum continued to increase, albeit at a slower rate. At pH 7.0 (FIG. 8B), the absorbance at 300 nm continued to slowly increase in intensity even up to 90 minutes after dissolving CHP-OEt (0.2 mg) in DMSO (0.02 ml) into 0.05M Phosphate buffer (3 ml). Furthermore, a second maximum at 350 nm developed but it remaind smaller in intensity than the 300 nm peak.
Table 2 summarizes the results of several separate experiments involving the reactions of CHP-OEt, CHA-OEt, pIQ-OEt and pBQ (0.5-1.0 mM) with various nucleophiles (lysine, 3-MPA) reducing agents (NaBH4, 3-MPA) and oxidizing agents (NaIO4, O2) in ten-fold molar excess in Tris-HCl buffer (0.05M, pH 9.0).
In these studies, CHP-OEt, CHA-OEt and pBQ* were all pure compounds, thus, their absorption could be unequivocably assigned, pIQ-OEt was generated by the autoxidation of CHA-OEt in solution and its presence was noted by the appearance of one absorbance maximum at 400 nm and the development of a distinct yellow color to a previously clear solution of CHA-OEt. […] On the other hand, there was a dissimilarity between the spectra of CHP-OEt and CHA-OEt. CHA-OEt was oxidized by O2 or NaIO4 to the pIQ-OEt with a λmax =400 nm whereas NaIO4 had no effect on the rate or nature of spectral change that occurred when . . .

[5] = Stability in aqueous media; format: physicochemical
[6] = tested on: Leucine Aminopeptidase (LAP); experiment: Hydrolysis of Leu-CHP by LAP studied by absorption spectrophotometry; format: biochemical; details: pH 8.5, FIG. 7
Description: Leucine Aminopeptidase (LAP), type III-CP (Sigma) was stored at 0°-4° C. in 0.75M saturated […], 0.1M Tris and 0.005M MgCl2 (pH 8) and contained 210 U/ml. Prior to the hydrolysis experiment, LAP (50λ) was activated by incubating it in 0.025M MnCl2 (0.2 ml), 0.5M Tris.HCl buffer (pH 9.0, 0.2 ml) and demineralized and ultra-filtered H2 O (0.6 ml) for at least 2 hours at 37° C. To each sample test tube was added AA-CHP (1.5 mg) in 0.02M Tris HCl buffer (pH 9.0, 0.5 ml) so that the final concentration was 1 mg/ml AA-CHP. The hydrolysis reaction was allowed to proceed for up to 12 hours and then TLC's were performed by spotting the reaction solution (2-3 μl) on cellulose plates and developing them in Butanol (20 ml)/HAc(4ml)/Pyridine(13.3 ml)/H2 O (16 ml) solvent system. […]
In order to characterize the products of hydrolysis of AA-CHP's, the hydrolysis of Leu-CHP by LAP was studied by absorption spectrophotometry. […] However, by 22 minutes (not shown) the absorbance at 300 and 400 nm had diminished in intensity while the 350 maximum continued to increase, albeit at a slower rate. At pH 7.0 (FIG. 8B), the absorbance at 300 nm continued to slowly increase in intensity even up to 90 minutes after dissolving CHP-OEt (0.2 mg) in DMSO (0.02 ml) into 0.05M Phosphate buffer (3 ml). […]

[7] = tested on: mice; details: for LD100: i.p., mice
Description: Cysteine hydrochloride was neutralized with 1N NaOH and diluted with PBS so that the final concentration was 30 mg/ml. In those groups that received only the test compounds, a single dose (up to 1000 mg/kg) was given i.p. and any toxic deaths were autopsied and hematoxylin and eosin sections obtained.

[8] = tested on: L1210 murine leukemia cells; experiment: Inhibition of 3H-thymidine incorporation into DNA; format: cell-based
Description: An L1210 murine leukemia cell line was maintained in mice (female DBA/2J strain from the Jackson Laboratory, Bar Harbor, Maine) by transferring every seven days via intraperitoneal (i.p.) injection of 10^5 cells. […] The frozen cells maintained their viability for over two years. For all in vitro and in vivo experiments only freshly harvested intraperitoneally grown L1210 cells were used.
A DBA/2J mouse bearing L1210 cells for 6 days after i.p. inoculation of 1×10^5 cells was sacrificed by cervical dislocation and, using sterile technique, the abdominal skin was incised and pinned back. Using two 10 ml syringes with 21 gauge needles, one being filled with cold phosphate buffer saline (PBS) (9 ml, pH 7.4) and in 3 ml increments, the solution was injected into the peritoneal cavity through one side and withdrawn with the other syringe through the other side. The light pink cell suspension was then centrifuged at 2000 rpm for 5 minutes and the supernatant was decanted. […] After 0, 2, 4, 5 or 6 hours preincubation, 3H-Thymidine (1 μl; 1 μC) was added and then the incubation was continued for another 1/2 hour. The cells were then killed and their proteins precipitated with 5% TCA. […] To each vial was then added more PPO/POPOP/Toluene cocktail (1.5 ml) and the samples were counted. […]

[9] = compound added: 3-MPA, pH 8-9, ten-fold excess
[10] = compound added: Lysine, pH 8-9, ten-fold excess
[11] = Leu-CHP 1000 mg/kg i.p. with cysteine
[12] = no cysteine, Leu-CHP 1000 mg/kg, Phe-CHP 600 mg/kg i.p.

C[C@H](N)C(=O)NN(CC(=O)O)c1ccc(O)cc1 [Ala-CHP]
survivors/total ([1]; 600 mg/kg i.p.): 5/5
survivors/total ([1]; 1000 mg/kg i.p.): 6/6
LD50 [2]: > 1000 mg/kg
NOAEL [2]: ≥ 1000 mg/kg
cleavage/hydrolysis by LAP [3]: able to cleave

CC(C)C[C@H](NC(=O)OC(C)(C)C)C(=O)NN(CC(=O)O)c1ccc(O)cc1 [Boc-Leu-CHP]
cleavage/hydrolysis by LAP [3]: not

CCOC(=O)CNc1ccc(O)cc1 [CHA-OEt, N(p-hydroxyphenyl)glycine ethyl ester, reference compound]
Final Maximum (nm) [4, 9]: 300 nm
Initial Maximum (nm) ([4]; pH 8-9): 300 nm

CCOC(=O)CN(N)c1ccc(O)cc1 [CHP-OEt, α-N-(carboxymethyl ethyl ester)-p-hydroxyphenylhydrazine]
stability in aqueous media [5]: obvious instability
stability in aqueous media ([5]; listed as IVa): decomposes rapidly
survivors/total ([1]; 400 mg/kg i.p.): 3/3
deaths/total ([1]; 550 mg/kg i.p. in 7% DMSO): four of four
survivors/total ([1]; 550 mg/kg i.p. in 7% DMSO): 0/4
time of death after treatment ([1]; 550 mg/kg i.p. in 7% DMSO): ≤ 8 h
Histologic Findings: Acute Renal Tubular Necrosis ([1]; i.p., mice): 0
Histologic Findings: Pulmonary Congestion and Edema ([1]; i.p., mice): +++
microscopic examination of the heart ([1]; i.p., mice): no evidence of a toxic insult
pulmonary congestion and edema (in words) ([1]; i.p.): moderate to severe
LD50 [2]: 400 to 550 mg/kg
absorption maximum ([4]; 0.01M Tris buffer pH 9.0, FIG. 8A): 300 nm
second absorption maximum ([4]; 0.05M Phosphate buffer pH 7.0, FIG. 8B): 350 nm
Final Maximum (nm) [4, 9]: 300 nm
Final Maximum (nm) [4, 10]: 350 nm
Final Maximum (nm), appears after NaBH4 has decomposed ([4]; compound added: NaBH4, pH 8-9): 350 nm
Final Maximum (nm) ([4]; compound added: NaBH4, pH 8-9, ten-fold excess): 300 nm
Final Maximum (nm) ([4]; compound added: NaIO4, pH 8-9, ten-fold excess): 350 nm
Final Maximum (nm) ([4]; compound added: none, pH 8-9): 350 nm
Initial Maximum (nm) ([4]; pH 8-9): 300 nm

N[C@@H](CCC(=O)O)C(=O)NN(CC(=O)O)c1ccc(O)cc1 [Glu-CHP]
survivors/total ([1]; 600 mg/kg i.p.): 5/5
survivors/total ([1]; 1000 mg/kg i.p.): 6/6
LD50 [2]: > 1000 mg/kg
NOAEL [2]: ≥ 1000 mg/kg
cleavage/hydrolysis by LAP [3]: not

CC(C)C[C@H](N)C(=O)NN(CC(=O)O)c1ccc(O)cc1 [Leu-CHP, βN-(L-leucyl)-αN-(carboxymethyl)-p-hydroxy-phenylhydrazine]
new, more intense absorption maximum appearing during hydrolysis [6]: 350 nm
original absorption maximum (disappeared during hydrolysis) [6]: 300 nm
survivors/total ([1]; 600 mg/kg i.p.): 5/5
survivors/total ([1]; 750 mg/kg i.p.): 3/3
survivors/total ([1]; 1000 mg/kg i.p.): 0/9
acute renal tubular necrosis (in words) ([1]; i.p., mice): early signs of ATN
microscopic examination of the heart ([1]; i.p., mice): no evidence of a toxic insult
pulmonary congestion and edema (in words) ([1]; i.p.): moderate to severe
LD50 [2]: 750 to 1000 mg/kg
deaths/total ([7]; 1000 mg/kg i.p., no cysteine): Nine of nine
deaths/total ([7]; 1000 mg/kg i.p., no cysteine, listed as Leu--CHP): 9/9
Time of Death [7, 11]: 72 h
pulmonary congestion or edema, histology of mouse that died on Day 3 [7, 11]: no evidence of pulmonary congestion or edema
deaths/total ([7]; Leu-CHP 1000 mg/kg i.p. with cysteine 1000 mg/kg before and after): one of three
deaths/total ([7]; Leu-CHP 1000 mg/kg i.p. with cysteine 1000 mg/kg before and after, listed as Leu--CHP): 1/3
LD100 [7]: 1000 mg/kg
Time of Death [7, 12]: ≤ 8 h
Time of Death ([7]; no cysteine, Leu-CHP 1000 mg/kg, Phe-CHP 600 mg/kg i.p., listed as Leu--CHP): < 8 h
cleavage/hydrolysis by LAP [3]: able to cleave; also recorded: demonstrated
inhibition of 3H-thymidine incorporation into DNA ([8]; no pre-incubation (simultaneous exposure), FIG. 12): no inhibition
inhibition of 3H-thymidine incorporation / DNA synthesis (in words) ([8]; with pre-incubation): degree of inhibition of ^3 H-thymidine incorporation also increased

CCOC(=O)CN(NC(=O)[C@@H](N)CC(C)C)c1ccc(O)cc1 [Leu-CHP-OEt, β-N-(L-leucyl)-α-N-(carboxymethyl ethyl ester)-p-hydroxyphenylhydrazine]
cleavage/hydrolysis by LAP [3]: able to cleave

NCCCC[C@H](N)C(=O)NN(CC(=O)O)c1ccc(O)cc1 [Lys-CHP]
survivors/total ([1]; 600 mg/kg i.p.): 5/5
survivors/total ([1]; 1000 mg/kg i.p.): 6/6
LD50 [2]: > 1000 mg/kg
NOAEL [2]: ≥ 1000 mg/kg
cleavage/hydrolysis by LAP [3]: not

N[C@@H](Cc1ccccc1)C(=O)NN(CC(=O)O)c1ccc(O)cc1 [Phe-CHP]
survivors/total ([1]; 400 mg/kg i.p.): 3/5
survivors/total ([1]; 600 mg/kg i.p.): 1/7
Histologic Findings: Acute Renal Tubular Necrosis ([1]; i.p., mice): +++
acute renal tubular necrosis (in words) ([1]; i.p., mice): severe acute renal tubular coagulative necrosis
relative toxicity ([1]; i.p., mice): most toxic
pulmonary congestion and edema (in words) ([1]; i.p.): minimal
LD50 [2]: 400 mg/kg
deaths/total ([7]; 600 mg/kg i.p., no cysteine): 6 of 7
deaths/total ([7]; 600 mg/kg i.p., no cysteine, listed as Phe--CHP): 6/7
deaths/total ([7]; Phe-CHP 600 mg/kg i.p. with cysteine 1000 mg/kg before and after): none
deaths/total ([7]; Phe-CHP 600 mg/kg i.p. with cysteine 1000 mg/kg before and after, listed as Phe--CHP): 0/3
LD100 [7]: 600 mg/kg
Time of Death [7, 12]: 36 to 44 h
cleavage/hydrolysis by LAP [3]: able to cleave

CCOC(=O)CN=C1C=CC(=O)C=C1 [pIQ-OEt, reference compound]
Final Maximum (nm) [4, 10]: 300 nm
λmax of pIQ-OEt formed by oxidation of CHA-OEt ([4]; oxidation by O2 or NaIO4): 400 nm
